Test results as given in patent publication US7270968B2, “PTH analogs for renal osteodystrophy and related uses” (The General Hospital Corporation, priority 2000, dated 2007).
pEC50, pIC50: −log10 of the molar value. Where two headings read alike, the source gives them in different places.

How the values were obtained:
Gs-linked PTH receptors [1] = conditions: F1 cells and osteoblastic subclones; cited from earlier work
CPTHR [2] = assay: Competitive displacement of 125I-[Tyr34]hPTH(19-84) radioligand in C59 (OC59) cells; format: binding, mouse; conditions: for Binding to the CPTHR: Example 2, either alone or in combination
Protocol: The human PTH peptides shown were tested for their ability to displace the ^125I-[Tyr^34]hPTH(19-84) tracer in C59 cells. Experiments were performed as described in FIG. 1. Results are expressed as the percentage of maximal specific binding observed in the absence of competing ligand and are shown as mean±standard deviation of triplicates in this representative experiment.
OC59 cells were incubated at 15° C. for 4 hr with ^125I[Tyr^34]hPTH(19-84) tracer (150,000 cpn/well) plus the indicated competing human PTH peptides. Results are means of triplicates.
The [Tyr^34]hPTH(19-84) peptide was radioiodinated with Na[^125I](2000 Ci/mmol) by the chloramine-T method and purified by HPLC, as previously described (Inomata, N., et al., Endocrinology 136:4732-4740 (1995)). For binding experiments, cells (100,000 cells/ml) were plated in 24-well dishes and cultured at 33° C. for 7 to 14 days. Confluent monolayers then were washed with 0.5 ml binding buffer [100 mM NaCl, 5 mM KCl, 2 mM CaCl2, 50 mM Tris-HCl (pH 7.8) plus 5% heat-inactivated horse serum] before incubation with ^125I-[Tyr^34]hPTH-(19-84) (100,000-200,000 cpm/well) in 0.5 ml binding buffer for 4 h at 15° C. Receptor number was ascertained by Scatchard analysis, using [Tyr^34]hPTH-(19-84) or hPTH(1-84) as competing ligand. […] In some experiments, cells were washed with acidic buffer (50 mM glycine, 150 mM NaCl, pH 4.0) to remove residual bound ligand, prior to addition of radioligand.

CPTHR [3] = assay: Downregulation of CPTHR binding in C59 cells after pretreatment; format: cell-based, mouse; conditions: for Downregulation of CPTHR binding: exposure 24 hr; for Radioligand binding, % of controls after drug removal: 24 h after removal; for Reduction of specific binding / Reduction of specific 125I-[Tyr34]hPTH(19-84) binding: preincubation 16 h
Protocol: Specific binding, is expressed as mean ± standard deviation of triplicates. * p<0.05, ** P<0.01.
For binding experiments, cells (100,000 cells/ml) were plated in 24-well dishes and cultured at 33° C. for 7 to 14 days. […] Receptor number was ascertained by Scatchard analysis, using [Tyr^34]hPTH-(19-84) or hPTH(1-84) as competing ligand. […] In some experiments, cells were washed with acidic buffer (50 mM glycine, 150 mM NaCl, pH 4.0) to remove residual bound ligand, prior to addition of radioligand.
(1 mM), forskolin (10 μM), insulin (100 ng/mL), IGF-1 ([…]) or dexamethasone (100 nM).

OC14 cells [4] = assay: Cell death by trypan blue staining in OC14 cells; format: cell-based, mouse
Protocol: OC14 cells were plated, cultured at 33° C. for 3 days and then incubated at 39° C. for 5-7 days before addition of PTH peptides for a further 16 hr, followed by trypan blue staining (see Example 1). A) Human PTH 1-84 dose response, B) Response to hPTH(1-84), 100 nM and hPTH(39-84), 1000 nM, C) Response to [Tyr^34]hPTH(24-84), 100 nM, D) Caspase dependance (“C”=controls) The Caspase-3 inhibitor DEVD (“D”) was added 1 hr prior to addition of 100 nM hPTH(1-84) (“P”). Results are expressed as mean±SD of quadruplicate determinations of the percentage of nonvital trypan blue-stained cells. * p<0.05, ** p<0.01.
Briefly, cells were plated at 50,000 cells/well in 24-well dishes at 33° C. and shifted to nonpermissive conditions (39° C.) after 2 days. Cells were grown at 39° C. for an additional 4-6 days in α-MEM supplemented with 2.5% of FBS and 1% PS and then treated with different hormones for additional 16-18 hr. Non-adherent cells were combined with adherent cells that were released from the cultures with trypsin-EDTA, centrifuged and resuspended in 0.1% trypan blue solution.

PTH1R = target: T1, PTH1R (Homo sapiens, UniProt Q03431); conditions: cited from earlier work
T1 sequence (Q03431 27-593): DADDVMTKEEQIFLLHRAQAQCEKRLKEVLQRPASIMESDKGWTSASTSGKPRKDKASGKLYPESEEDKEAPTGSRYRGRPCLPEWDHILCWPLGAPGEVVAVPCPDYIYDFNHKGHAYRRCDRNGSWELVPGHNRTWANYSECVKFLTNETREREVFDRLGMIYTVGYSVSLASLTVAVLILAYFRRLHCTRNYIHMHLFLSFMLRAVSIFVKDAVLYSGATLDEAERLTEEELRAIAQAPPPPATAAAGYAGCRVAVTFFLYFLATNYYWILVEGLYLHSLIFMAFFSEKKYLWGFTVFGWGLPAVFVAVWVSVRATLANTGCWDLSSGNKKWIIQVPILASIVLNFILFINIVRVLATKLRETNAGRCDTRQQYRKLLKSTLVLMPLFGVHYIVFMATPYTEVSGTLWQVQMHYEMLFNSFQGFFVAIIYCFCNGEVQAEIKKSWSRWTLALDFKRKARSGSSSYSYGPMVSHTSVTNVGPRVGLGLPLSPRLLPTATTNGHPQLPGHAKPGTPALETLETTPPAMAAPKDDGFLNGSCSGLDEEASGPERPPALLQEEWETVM

Gs-linked PTH receptors [5] = assay: Cyclic AMP accumulation in C cells (OC1, OC14, OC59); format: cell-based, mouse; conditions: three C cells
Protocol: The buffer then was rapidly aspirated, the plates were frozen in liquid nitrogen, and the frozen cells were subsequently thawed directly into 0.5 ml of 50 mM HCl. Cell-associated cAMP in the acid extracts was measured using an RIΛ kit (NUN Life Science Products, Boston, Mass., U.S.A.). Results were expressed as picomoles of cAMP produced per well over 15 min.

OC14 cells [6] = assay: Apoptosis by Hoechst 33258 DNA staining in OC cells; format: cell-based, mouse; conditions: 100 nM, 6 hr
Protocol: (§1) Cells plated on glass coverslips and maintained at 33° C. for 33 days were shifted to 39° C. for 5-7 days before addition of 100 nM hPTH(1-84) (B, D) or vehicle alone (A, C) for 6 hr. At the end of the incubations, cells were fixed and stained with Hoechst 33258 (A and B) or for TUNEL (C and D) (see Example 1). Arrows indicate apoptotic cells. 200× magnification.
(§2) The pyknotic fragmentation of nuclei typical of apoptotic cells was detected using Hoechst-33258 fluorescent dye (Sigma Co., St. Louis, Mo., U.S.A.). Briefly, cells were cultured on glass coverslips and maintained in culture at nonpermissive conditions for 4-6 days in (α-MEM supplemented with 2-5% of FBS and 1% PS. After exposure to the test hormones for 6 hr, culture medium was aspirated and cells were fixed in 4% paraformaldehyde in phosphate buffered solution and then stained with Hoechst-33258 ([…]) for 5 min at room temperature. Cells were washed and mounted with glycerol-PBS (9:1, v/v). The stained nuclei were visualized by fluorescence microscopy using DAPI filter. In some experiments, apoptotic cells were detected by the terminal deoxynucleotidyl transferase-mediated nick end labeling (TUNEL) reaction, using the In Situ Cell Death Detection Kit from Roche Molecular Biochemicals (Indianapolis, Ind., U.S.A.) following the manufacturer's instruction.

OC14 cells [7] = assay: Apoptosis by TUNEL assay in OC cells; format: cell-based, mouse; conditions: 100 nM, 6 hr
Protocol: as §1, §2

C×43 expression = assay: Connexin 43 immunocytochemical staining in OC cells; format: cell-based, mouse; conditions: 100 nM, 2 hr
Protocol: OC14 cells were plated on glass coverslips at 72,000 cells/cm^2, cultured at 33° C. for 2 days and then shifted at 39° C. for 3-5 days before stimulation with CPTHR ligands. OC14 cells were treated for 2 hr with (A) vehicle alone, (B) 100 nM hPTH(1-84) or (C) 1000 nm hPTH(39-84). Cells were fixed and stained for C×43 expression as described (see Example 1).
For Immunocytochemical analysis, cells were plated on glass chamber slides at 72,000 cells/cm^2, cultured for two days at 33° C. and then shifted for an additional 4-6 days at 39° C. Cells were treated with vehicle alone (0.1% TFA) or with the appropriate hormone for the time indicated. The immunocytochemical staining was performed as previously described (Kato, Y., et al., J. Bone Miner. Res. 12:2014-2023 (1997)). Briefly, cells were fixed in 3% paraformaldehyde/2% sucrose in PBS and permeabilized for 5 min. with 0.05% Triton-X 100 diluted in PBS. The fixed slides were blocked in 5% BSA in TBS-T buffer for 2 h at room temperature. The cells then were incubated with a 1:125 dilution of anti-C×43 monoclonal antibody for 30 min at room temperature. The bound antibody was detected using a Vectastain ABC kit, followed by staining with VIP substrate according to manufacturer's instructions (Vector Laboratories, Burlingame, Calif.). Counter staining was performed using 0.5% methyl green. […]

hPTHrP(1-36): Human PTH-related peptide fragment 1-36
cAMP response (Gs-linked PTH receptors [1]): no detectable cAMP response

hPTH(50-60): Short synthetic human PTH peptide spanning residues 50-60 (RPRKKEDNVLV; Parathyroid hormone; UniProt P01270 81-91, looked up, fragment)
Binding to the CPTHR (CPTHR [2]): failed to bind

insulin: insulin
Downregulation of CPTHR binding (CPTHR [3]; 100 ng/mL): No downregulation

C=C1/C(=C\C=C2/CCC[C@]3(C)[C@@H]([C@H](C)CCCC(C)(C)O)CC[C@@H]23)C[C@@H](O)C[C@@H]1O [1,25(OH)2D3]
Downregulation of CPTHR binding (CPTHR [3]; 10 nM): No downregulation

hPTH(39-84): C-terminal human PTH fragment 39-84, purchased from Peninsula (APLAPRDAGSQRPRKKEDNVLVESHEKSLGEADKADVNVLTKAKSQ; Parathyroid hormone; UniProt P01270 70-115, looked up, fragment)
Increase in trypan blue-stained cells over basal (OC14 cells [4]; 1000 nM, 16 hr): 1.5 fold | Downregulation of CPTHR binding (CPTHR [3]; 1 μM): No downregulation | pIC50 (CPTHR [2]; C59 cells, 4 h at 15° C.): 6.15 to 6.30 | IC50 relative to hPTH(1-84) and hPTH(19-84) (CPTHR [2]; OC cells): roughly 15 fold | Binding and activation of the PTH1R (PTH1R): neither bind nor activate

CCCCCCCCCCCCCC(=O)O[C@@H]1[C@@H](C)[C@@]2(O)[C@@H](C=C(CO)C[C@]3(O)C(=O)C(C)=C[C@@H]23)[C@H]2C(C)(C)[C@]12OC(C)=O [TPA]
Radioligand binding, % of controls after drug removal (CPTHR [3]): 63% | Reduction of specific binding (CPTHR [3]; 10 nM): 48±12%

PTH(53-84): Carboxyl fragment 53-84 of intact PTH (KKEDNVLVESHEKSLGEADKADVNVLTKAKSQ; Parathyroid hormone; UniProt P01270 84-115, looked up, fragment)
Binding and activation of the PTH1R (PTH1R): neither bind nor activate

C[C@H](CCC(=O)O)C[C@H](C)C[C@H](C)C(=O)/C=C(\O)[C@H](C)C[C@H](C)C/C=C/[C@@H](C)[C@@H](O)[C@@H](C)[C@@H](O)C[C@@H]1CC[C@@](C)([C@H]2CC[C@@](C)([C@@H](C)O)O2)O1 [ionomycin]
Radioligand binding, % of controls after drug removal (CPTHR [3]): 100% | Reduction of specific binding (CPTHR [3]; 1 μM): 71±3%

hPTH(1-34): Amino-terminal human PTH fragment 1-34
cAMP response (Gs-linked PTH receptors [1]): no detectable cAMP response | Effect on cell death (trypan blue) (OC14 cells [4]; concentrations as high as 1000 nM): inactive | Downregulation of CPTHR binding (CPTHR [3]; 1 μM): No downregulation | Displacement of the tracer (CPTHR [2]; concentrations up to 1000 nM): did not displace the tracer significantly | cAMP response (Gs-linked PTH receptors [5]): absence of a detectable cAMP response

hPTH(1-84): Recombinant human parathyroid hormone (1-84), the intact hormone
cAMP response (Gs-linked PTH receptors [1]): no detectable cAMP response | Concentration of maximal effect upon cell death (OC14 cells [4]; 16 hr, trypan blue): 10 nM | pEC50 (OC14 cells [4]; 16 hr, trypan blue, read-out: EC50, effect upon cell death): ~10.00 | Change in trypan blue-stained cells (OC14 cells [4]; after 16 hr): doubling | Nuclear pyknosis and chromatin condensation, Hoechst dye 33258 (OC14 cells [6]): increased nuclear pylulosis ;aid chromatin condensation | Apoptosis, TUNEL immunocytochemical assay (OC14 cells [7]): Increased apoptosis | Reduction of specific 125I-[Tyr34]hPTH(19-84) binding (CPTHR [3]; 200 nM): 19±5% | Reduction of specific 125I-[Tyr34]hPTH(19-84) binding (CPTHR [3]; 1000 nM): 66±7% | Expression of C×43 by immunostaining (C×43 expression): increased the expression of C×43 | cAMP response (Gs-linked PTH receptors [5]): absence of a detectable cAMP response

IGF-1: IGF-1
Downregulation of CPTHR binding (CPTHR [3]): No downregulation

hPTH(24-54): Short synthetic human PTH peptide spanning both binding domains 24-27 and 53-54 (LRKKLQDVHNFVALGAPLAPRDAGSQRPRKK; Parathyroid hormone; UniProt P01270 55-85, looked up, fragment)
pEC50 (CPTHR [2]; Example 2, PTH1R-null CPTHR-expressing calvarial-derived clonal cells, read-out: apparent EC50, competition of [Tyr34]125I-hPTH(19-84) tracer): 4.70

hPTH(20-30): Short synthetic human PTH peptide spanning residues 20-30 (RVEWLRKKLQD; Parathyroid hormone; UniProt P01270 51-61, looked up, fragment)
Binding to the CPTHR (CPTHR [2]): failed to bind
